Test: Water solubility of 5-FU
Type: physicochemical
Conditions: read-out: measured water solubility
Description: A hyaluronic acid formulation that includes 5-FU can be prepared as described. 5-FU is combined with 10 mg hyaluronic acid (1 MDa), 1 ml sterile water. The product is stirred until a uniform gel solution, free of particular polymer or drug is achieved. Alternatively, the HA and water may be combined, stirred and autoclaved to homogenize the solution. After dissolving the polymer, the 5-FU may be added with stirring. NaCl is added (as required for isotonicity), and the pH is adjusted to between 6-8 with NaOH and HCl as required. […] The formulation may be injected to the site of treatment (e.g., into a joint) in a volume appropriate to that site. For example, a knee joint might receive a 2 ml injection, whereas a finger joint or tendon sheath may receive substantially less.

solubility: 12.9 mg/mL
SMILES: O=c1[nH]cc(F)c(=O)[nH]1 [Formula 5-FU, 5-Fluorouracil]
